# Experimental data: ChEMBL document CHEMBL1143948, “Hepatitis C virus NS3 protease inhibitors comprising a novel aromatic P1 moiety” (Bioorg Med Chem, 2008)
# How the values were obtained:
# Hepatitis C virus = assay: Antiviral activity against Hepatitis C virus infected human hepatoma cells by replicon assay; assay type: functional, organism-based, Hepacivirus hominis
# [1] = Inhibition of HCV NS3 protease by FRET assay; set-up: species or system Hepacivirus hominis
# [2] = Cytotoxicity against human hepatoma cells; assay type: cell-based
Structure (SMILES),Ki [1] [µM],also measured
CCC[C@H](NC(=O)[C@@H]1[C@H]2CCC[C@H]2CN1C(=O)[C@@H](NC(=O)[C@@H](NC(=O)c1cnccn1)C1CCCCC1)C(C)(C)C)C(=O)C(=O)NC1CC1 [TELAPREVIR],0.039,EC50 (Hepatitis C virus): 0.31 µM
COc1ccc2c(O[C@@H]3C[C@@H](C(=O)Nc4ccc(C(=O)O)cc4)N(C(=O)[C@@H](NC(=O)OC(C)(C)C)C(C)(C)C)C3)cc(-c3ccccc3)nc2c1,12,
COc1ccc2c(O[C@@H]3C[C@@H](C(=O)Nc4ccccc4C(=O)NS(=O)(=O)C4CC4)N(C(=O)[C@@H](NC(=O)OC(C)(C)C)C(C)(C)C)C3)cc(-c3ccccc3)nc2c1,2,
COc1ccc2c(O[C@@H]3C[C@@H](C(=O)Nc4c(C)cccc4C(=O)NS(=O)(=O)c4ccccc4)N(C(=O)[C@@H](NC(=O)OC(C)(C)C)C(C)(C)C)C3)cc(-c3ccccc3)nc2c1,3.2,
COc1ccc2c(O[C@@H]3C[C@@H](C(=O)Nc4ccccc4Br)N(C(=O)[C@@H](NC(=O)OC(C)(C)C)C(C)(C)C)C3)cc(-c3ccccc3)nc2c1,3.9,
COc1ccc2c(O[C@@H]3C[C@@H](C(=O)Nc4ccccc4C(=O)NS(=O)(=O)c4cccs4)N(C(=O)[C@@H](NC(=O)OC(C)(C)C)C(C)(C)C)C3)cc(-c3ccccc3)nc2c1,0.92,
COc1ccc2c(O[C@@H]3C[C@H]4C(=O)N[C@]5(C(=O)O)C[C@H]5/C=C\CCCCC[C@H](NC(=O)OC5CCCC5)C(=O)N4C3)cc(-c3csc(NC(C)C)n3)nc2c1 [CILUPREVIR],0.00066,EC50 (Hepatitis C virus): 0.003 µM
COc1ccc2c(O[C@@H]3C[C@@H](C(=O)O)N(C(=O)[C@@H](NC(=O)OC(C)(C)C)C(C)(C)C)C3)cc(-c3ccccc3)nc2c1 [CORBOXYLIC ACID],66,
COc1ccc2c(O[C@@H]3C[C@@H](C(=O)Nc4ccc(C(=O)NS(=O)(=O)c5ccccc5)cc4)N(C(=O)[C@@H](NC(=O)OC(C)(C)C)C(C)(C)C)C3)cc(-c3ccccc3)nc2c1,1.1,
COc1ccc2c(O[C@@H]3C[C@@H](C(=O)Nc4ccc(Br)cc4)N(C(=O)[C@@H](NC(=O)OC(C)(C)C)C(C)(C)C)C3)cc(-c3ccccc3)nc2c1,1.8,
CC(C)(C)NC(=O)N[C@H](C(=O)N1C[C@H]2[C@@H]([C@H]1C(=O)NC(CC1CCC1)C(=O)C(N)=O)C2(C)C)C(C)(C)C (stereo partly drawn) [BOCEPREVIR],0.014,
COc1ccc2c(O[C@@H]3C[C@@H](C(=O)Nc4ccccc4C(=O)NS(C)(=O)=O)N(C(=O)[C@@H](NC(=O)OC(C)(C)C)C(C)(C)C)C3)cc(-c3ccccc3)nc2c1,5.9,
COc1ccc2c(O[C@@H]3C[C@@H](C(=O)Nc4ccccc4C(=O)NS(=O)(=O)c4ccccc4)N(C(=O)[C@@H](NC(=O)OC(C)(C)C)C(C)(C)C)C3)cc(-c3ccccc3)nc2c1,0.83,
COc1ccc2c(O[C@@H]3C[C@@H](C(=O)Nc4ccccc4C(=O)O)N(C(=O)[C@@H](NC(=O)OC(C)(C)C)C(C)(C)C)C3)cc(-c3ccccc3)nc2c1,5,
CC(C)(C)OC(=O)N[C@H]1CCCCC/C=C\[C@@H]2C[C@@]2(C(=O)NS(=O)(=O)C2CC2)NC(=O)[C@@H]2C[C@@H](OC(=O)N3Cc4cccc(F)c4C3)CN2C1=O [DANOPREVIR],,EC50 (Hepatitis C virus): 0.0021 µM; IC50 [1]: < 0.00025 µM

# Second part, led by results:
Ki [1] [µM],Structure (SMILES),also measured
0.78,COc1ccc2c(O[C@@H]3C[C@@H](C(=O)Nc4cccc(C(=O)NS(=O)(=O)c5ccccc5)c4)N(C(=O)[C@@H](NC(=O)OC(C)(C)C)C(C)(C)C)C3)cc(-c3ccccc3)nc2c1,
0.35,COc1ccc2c(O[C@@H]3C[C@@H](C(=O)Nc4cc(C(F)(F)F)ccc4C(=O)NS(=O)(=O)c4ccccc4)N(C(=O)[C@@H](NC(=O)OC(C)(C)C)C(C)(C)C)C3)cc(-c3ccccc3)nc2c1,EC50 (Hepatitis C virus): 5.2 µM; CC50 [2]: 28 µM
17,COc1ccc2c(O[C@@H]3C[C@@H](C(=O)Nc4ccccc4CC(=O)O)N(C(=O)[C@@H](NC(=O)OC(C)(C)C)C(C)(C)C)C3)cc(-c3ccccc3)nc2c1,
1.4,COc1ccc2c(O[C@@H]3C[C@@H](C(=O)Nc4cccc(Br)c4)N(C(=O)[C@@H](NC(=O)OC(C)(C)C)C(C)(C)C)C3)cc(-c3ccccc3)nc2c1,
0.31,COc1ccc2c(O[C@@H]3C[C@@H](C(=O)Nc4ccccc4C(=O)NS(=O)(=O)c4ccc(C(F)(F)F)cc4)N(C(=O)[C@@H](NC(=O)OC(C)(C)C)C(C)(C)C)C3)cc(-c3ccccc3)nc2c1,
1.2,COc1ccc(S(=O)(=O)NC(=O)c2ccccc2NC(=O)[C@@H]2C[C@@H](Oc3cc(-c4ccccc4)nc4cc(OC)ccc34)CN2C(=O)[C@@H](NC(=O)OC(C)(C)C)C(C)(C)C)cc1,
6.8,COc1ccc2c(O[C@@H]3C[C@@H](C(=O)Nc4cccc(C(=O)O)c4)N(C(=O)[C@@H](NC(=O)OC(C)(C)C)C(C)(C)C)C3)cc(-c3ccccc3)nc2c1,
0.61,COc1ccc2c(O[C@@H]3C[C@@H](C(=O)Nc4ccccc4C(=O)NS(=O)(=O)Cc4ccccc4)N(C(=O)[C@@H](NC(=O)OC(C)(C)C)C(C)(C)C)C3)cc(-c3ccccc3)nc2c1,
